Results reported in ChEMBL document CHEMBL1201862, “PubChem BioAssay data set” (2004).
The source made the active and inactive calls.

Columns and labels:
Cytochrome P450 2D6 = Cytochrome P450 2D6 (Homo sapiens, UniProt P10635);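 note: CYP2D6 member of a cytochrome P450 panel assay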
Cytochrome P450 3A4 = Cytochrome P450 3A4 (Homo sapiens, UniProt P08684);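 note: CYP3A4 tested as one member of a cytochrome P450 panel screen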
[1] = molecular target: T1, Adenosylmethionine-8-amino-7-oxononanoate aminotransferase (Mycobacterium tuberculosis, UniProt P9WQ81); assay: Mycobacterium tuberculosis BioA enzyme inhibitor Measured in Biochemical System Using Plate Reader - 2163-02_Inhibitor_Dose_CherryPick_Activity.; format: functional, Mycobacterium tuberculosis UT205
T1 sequence (P9WQ81 whole entry): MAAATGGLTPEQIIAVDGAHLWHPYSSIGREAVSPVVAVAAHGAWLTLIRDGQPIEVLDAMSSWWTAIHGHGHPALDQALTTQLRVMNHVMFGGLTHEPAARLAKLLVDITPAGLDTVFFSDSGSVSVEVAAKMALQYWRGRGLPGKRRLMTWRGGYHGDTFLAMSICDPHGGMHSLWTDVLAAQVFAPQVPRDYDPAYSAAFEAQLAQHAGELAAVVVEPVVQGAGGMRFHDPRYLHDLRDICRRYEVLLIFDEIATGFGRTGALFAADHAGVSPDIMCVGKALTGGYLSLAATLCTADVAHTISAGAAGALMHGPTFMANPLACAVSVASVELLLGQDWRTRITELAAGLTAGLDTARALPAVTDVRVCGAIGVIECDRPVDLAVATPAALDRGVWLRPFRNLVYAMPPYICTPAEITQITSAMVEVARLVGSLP

Albumin = Albumin (Bos taurus, UniProt P02769); assay: Counterscreen for inhibitors of T-cell receptor (TCR)-CD3 interaction: Fluorescence-based biochemical high throughput dose response assay to identify inhibitors of T-cell receptor (TCR)-CD3 interaction using a TAMRA-labeled BSA probe.; format: functional
Albumin, sequence (P02769 whole entry): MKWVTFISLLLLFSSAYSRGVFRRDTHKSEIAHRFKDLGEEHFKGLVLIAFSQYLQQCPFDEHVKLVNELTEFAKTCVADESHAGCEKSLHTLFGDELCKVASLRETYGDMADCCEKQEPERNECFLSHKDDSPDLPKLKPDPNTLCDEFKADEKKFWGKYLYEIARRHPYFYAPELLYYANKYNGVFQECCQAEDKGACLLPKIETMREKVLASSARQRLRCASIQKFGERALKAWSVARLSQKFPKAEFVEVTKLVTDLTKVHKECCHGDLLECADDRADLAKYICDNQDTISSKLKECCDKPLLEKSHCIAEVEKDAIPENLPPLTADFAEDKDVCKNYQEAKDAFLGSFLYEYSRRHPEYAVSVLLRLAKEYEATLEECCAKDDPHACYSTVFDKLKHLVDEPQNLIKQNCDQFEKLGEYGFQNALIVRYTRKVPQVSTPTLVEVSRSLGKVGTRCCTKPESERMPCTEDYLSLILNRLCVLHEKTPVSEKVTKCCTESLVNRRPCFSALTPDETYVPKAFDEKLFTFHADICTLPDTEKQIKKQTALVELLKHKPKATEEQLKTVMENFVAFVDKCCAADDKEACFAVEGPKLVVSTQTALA

[2] = intracellular Trypanosoma cruzi inhibitors in host cells – cell-based, plate reader, cherry-pick samples, set 3, dose response (AID 651818); format: functional;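 note: compounds incubated with infected cells for about four days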
Streptococcus = assay: GAS UMAA2166 growth inhibition – luminescence, BacTiterGlo, counter-screen for streptokinase expression inhibitor project, dose response (AID 1915); format: functional, organism-based;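 note: potency for reduction of bacterial viability or growth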
Streptokinase A = molecular target: T2, Streptokinase A (Streptococcus pyogenes serotype M1, UniProt P10520); assay: viability-normalized secreted streptokinase activity reduction – plasminogen activation absorbance, OD405, dose response (AID 1914); format: functional, Streptococcus pyogenes M1 GAS;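 note: secreted streptokinase activity via plasminogen activation per viability signal from cell pellet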
T2 sequence (P10520 whole entry): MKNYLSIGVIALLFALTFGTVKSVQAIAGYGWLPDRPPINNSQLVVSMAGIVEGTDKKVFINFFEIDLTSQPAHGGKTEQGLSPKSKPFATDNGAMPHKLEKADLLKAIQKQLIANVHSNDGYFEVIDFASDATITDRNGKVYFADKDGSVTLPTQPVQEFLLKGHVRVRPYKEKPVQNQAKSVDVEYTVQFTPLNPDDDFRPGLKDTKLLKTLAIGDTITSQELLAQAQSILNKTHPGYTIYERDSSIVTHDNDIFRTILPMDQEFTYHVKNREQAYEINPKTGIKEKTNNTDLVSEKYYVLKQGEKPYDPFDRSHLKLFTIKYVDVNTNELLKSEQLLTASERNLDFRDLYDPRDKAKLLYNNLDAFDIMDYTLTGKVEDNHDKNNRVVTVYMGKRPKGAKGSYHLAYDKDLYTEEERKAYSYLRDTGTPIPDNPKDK

[3] = tested on: Streptococcus sp. 'group A'; assay: Streptococcus pyogenes SK(-)GAS viability under kanamycin – luminescence, BacTiterGlo, confirmation, counter-screen for streptokinase expression inhibitor project, dose response (AID 1900); format: functional, organism-based
H9c2 = assay: cells; format: functional, cell-based; settings: Rattus norvegicus, H9c2, Myocardium;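 note: confirmatory concentration-response retest of ultra-high-throughput screening hits for modulation of myocardial damage; cell death induced by hydrogen peroxide oxidative stress; compound pretreatment for 60 min then peroxide exposure for 2 h; potency is for protecting the cells against peroxide damage rather than for killing them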
Vero [4] = assay: cells; format: functional, cell-based; settings: Chlorocebus sabaeus
[5] = molecular target: T3, Methionyl-tRNA synthetase, putative (Trypanosoma brucei brucei, UniProt Q38C91); format: functional, Trypanosoma brucei brucei strain 927/4 GUTat10.1
T3 sequence (Q38C91 whole entry): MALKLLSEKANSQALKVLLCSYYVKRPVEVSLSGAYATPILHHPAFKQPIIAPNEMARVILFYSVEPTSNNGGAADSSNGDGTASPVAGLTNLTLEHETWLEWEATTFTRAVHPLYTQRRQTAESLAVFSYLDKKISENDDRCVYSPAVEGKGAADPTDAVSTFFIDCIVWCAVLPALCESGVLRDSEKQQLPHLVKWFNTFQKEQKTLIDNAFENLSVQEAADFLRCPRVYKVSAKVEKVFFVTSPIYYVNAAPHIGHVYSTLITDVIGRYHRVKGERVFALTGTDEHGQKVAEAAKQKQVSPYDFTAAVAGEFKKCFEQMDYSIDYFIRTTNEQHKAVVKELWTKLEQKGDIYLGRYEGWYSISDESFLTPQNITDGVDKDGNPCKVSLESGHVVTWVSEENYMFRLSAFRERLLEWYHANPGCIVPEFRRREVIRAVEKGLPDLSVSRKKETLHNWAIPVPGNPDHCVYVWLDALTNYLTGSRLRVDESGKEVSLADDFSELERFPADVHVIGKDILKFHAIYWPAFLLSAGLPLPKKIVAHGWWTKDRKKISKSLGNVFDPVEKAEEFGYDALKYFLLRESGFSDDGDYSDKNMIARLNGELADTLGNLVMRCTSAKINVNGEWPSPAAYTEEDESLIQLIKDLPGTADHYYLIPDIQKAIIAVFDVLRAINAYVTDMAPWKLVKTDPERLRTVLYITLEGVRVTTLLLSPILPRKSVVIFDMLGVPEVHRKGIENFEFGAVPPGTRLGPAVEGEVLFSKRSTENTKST

[6] = Counterscreen for inhibitors of Trypanosoma brucei methionyl tRNA synthetase (MetRS): Luminescence-based cell-based high throughput dose response assay to identify compounds that are cytotoxic to Jurkat human T lymphocyte cells.; format: functional
[7] = molecular target: T3, Methionyl-tRNA synthetase, putative; format: functional, Trypanosoma brucei brucei strain 927/4 GUTat10.1; remark: listed apart in the source
[8] = molecular target: T4, Apoptotic protease-activating factor 1 (Homo sapiens, UniProt O14727); format: functional
T4 sequence (O14727 whole entry): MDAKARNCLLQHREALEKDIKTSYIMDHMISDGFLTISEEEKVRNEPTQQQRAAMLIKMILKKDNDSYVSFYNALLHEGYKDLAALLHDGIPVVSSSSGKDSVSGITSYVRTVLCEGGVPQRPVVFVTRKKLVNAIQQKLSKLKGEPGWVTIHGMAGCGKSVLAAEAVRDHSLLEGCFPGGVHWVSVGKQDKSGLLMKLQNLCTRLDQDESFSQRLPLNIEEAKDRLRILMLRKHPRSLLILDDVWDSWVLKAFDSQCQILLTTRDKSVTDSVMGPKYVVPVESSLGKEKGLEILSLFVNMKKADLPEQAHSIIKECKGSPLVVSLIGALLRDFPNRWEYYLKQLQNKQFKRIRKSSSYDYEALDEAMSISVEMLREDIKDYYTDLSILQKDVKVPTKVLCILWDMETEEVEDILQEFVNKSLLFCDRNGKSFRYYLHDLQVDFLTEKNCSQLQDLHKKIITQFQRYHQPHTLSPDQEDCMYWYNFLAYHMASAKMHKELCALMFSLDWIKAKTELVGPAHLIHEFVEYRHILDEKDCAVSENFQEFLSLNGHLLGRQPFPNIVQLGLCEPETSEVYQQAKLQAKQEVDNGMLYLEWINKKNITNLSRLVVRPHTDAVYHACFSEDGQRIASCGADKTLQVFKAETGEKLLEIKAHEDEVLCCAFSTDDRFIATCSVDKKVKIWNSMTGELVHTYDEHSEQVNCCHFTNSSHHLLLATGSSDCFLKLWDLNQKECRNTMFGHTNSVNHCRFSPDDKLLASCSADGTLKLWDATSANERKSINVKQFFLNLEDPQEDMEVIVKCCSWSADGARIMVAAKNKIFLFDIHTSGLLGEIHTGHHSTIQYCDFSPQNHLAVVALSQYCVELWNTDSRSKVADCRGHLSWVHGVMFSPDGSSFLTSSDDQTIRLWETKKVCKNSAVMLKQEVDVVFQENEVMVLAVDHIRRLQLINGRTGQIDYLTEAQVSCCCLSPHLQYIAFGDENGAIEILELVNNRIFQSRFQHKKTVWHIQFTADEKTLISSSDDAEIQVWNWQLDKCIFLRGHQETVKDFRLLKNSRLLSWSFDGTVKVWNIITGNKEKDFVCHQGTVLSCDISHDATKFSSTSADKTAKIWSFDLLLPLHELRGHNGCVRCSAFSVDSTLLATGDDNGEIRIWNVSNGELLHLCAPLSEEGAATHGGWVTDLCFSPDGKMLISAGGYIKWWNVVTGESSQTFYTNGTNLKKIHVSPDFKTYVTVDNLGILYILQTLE

[9] = molecular target: Potassium channel subfamily K member 9 (Homo sapiens, UniProt Q9NPC2); assay: KCNK9 flux blockade, concentration-response – cell-based, FluxOR thallium flux, selectivity assay for TASK1 inhibitor project, SAR follow-up (AID 652211); format: functional;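 note: potency is for inhibitors of the channel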
Potassium channel subfamily K member 9, sequence (Q9NPC2 whole entry): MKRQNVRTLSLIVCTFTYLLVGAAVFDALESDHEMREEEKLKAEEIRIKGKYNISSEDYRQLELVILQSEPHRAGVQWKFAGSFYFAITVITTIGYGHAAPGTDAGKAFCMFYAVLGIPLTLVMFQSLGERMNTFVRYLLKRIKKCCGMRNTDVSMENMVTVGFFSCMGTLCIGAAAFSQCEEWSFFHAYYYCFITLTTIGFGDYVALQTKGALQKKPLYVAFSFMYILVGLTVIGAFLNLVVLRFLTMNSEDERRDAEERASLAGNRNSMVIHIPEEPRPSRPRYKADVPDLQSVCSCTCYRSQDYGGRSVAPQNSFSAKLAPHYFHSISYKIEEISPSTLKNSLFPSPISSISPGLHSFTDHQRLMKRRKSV

Cytochrome P450 1A2 = molecular target: T5, Cytochrome P450 1A2 (Homo sapiens, UniProt P05177);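 note: PubChem cytochrome P450 panel assay, CYP1A2 panel member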
T5 sequence (P05177 whole entry): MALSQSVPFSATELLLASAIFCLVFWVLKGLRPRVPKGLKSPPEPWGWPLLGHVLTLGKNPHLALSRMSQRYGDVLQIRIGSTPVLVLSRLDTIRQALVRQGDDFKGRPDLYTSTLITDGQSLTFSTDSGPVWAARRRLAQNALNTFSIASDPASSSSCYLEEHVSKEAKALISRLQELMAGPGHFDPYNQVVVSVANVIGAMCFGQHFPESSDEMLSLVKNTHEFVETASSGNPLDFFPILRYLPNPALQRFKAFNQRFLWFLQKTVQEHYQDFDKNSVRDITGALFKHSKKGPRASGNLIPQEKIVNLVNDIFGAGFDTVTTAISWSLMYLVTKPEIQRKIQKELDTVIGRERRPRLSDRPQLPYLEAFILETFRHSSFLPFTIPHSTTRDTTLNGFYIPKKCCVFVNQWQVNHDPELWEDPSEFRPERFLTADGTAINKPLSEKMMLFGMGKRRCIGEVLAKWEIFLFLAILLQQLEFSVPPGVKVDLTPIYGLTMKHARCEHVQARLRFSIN

Vero [10] = assay: cells; format: functional; settings: Chlorocebus sabaeus

Cytochrome P450 3A4, sequence (P08684 whole entry): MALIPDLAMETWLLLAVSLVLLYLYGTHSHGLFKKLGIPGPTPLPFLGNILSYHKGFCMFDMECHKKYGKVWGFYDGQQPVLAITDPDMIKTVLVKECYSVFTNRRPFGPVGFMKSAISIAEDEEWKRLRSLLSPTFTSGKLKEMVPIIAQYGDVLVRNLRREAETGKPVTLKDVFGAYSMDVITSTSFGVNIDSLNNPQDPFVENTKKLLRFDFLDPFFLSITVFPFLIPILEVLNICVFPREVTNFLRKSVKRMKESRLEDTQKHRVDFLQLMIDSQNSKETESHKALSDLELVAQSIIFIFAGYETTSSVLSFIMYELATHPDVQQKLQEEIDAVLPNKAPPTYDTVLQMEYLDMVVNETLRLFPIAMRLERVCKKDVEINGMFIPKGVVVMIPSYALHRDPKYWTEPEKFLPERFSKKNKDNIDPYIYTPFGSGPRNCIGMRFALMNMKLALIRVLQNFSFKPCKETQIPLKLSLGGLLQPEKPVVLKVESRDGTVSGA
Cytochrome P450 2D6, sequence (P10635 whole entry): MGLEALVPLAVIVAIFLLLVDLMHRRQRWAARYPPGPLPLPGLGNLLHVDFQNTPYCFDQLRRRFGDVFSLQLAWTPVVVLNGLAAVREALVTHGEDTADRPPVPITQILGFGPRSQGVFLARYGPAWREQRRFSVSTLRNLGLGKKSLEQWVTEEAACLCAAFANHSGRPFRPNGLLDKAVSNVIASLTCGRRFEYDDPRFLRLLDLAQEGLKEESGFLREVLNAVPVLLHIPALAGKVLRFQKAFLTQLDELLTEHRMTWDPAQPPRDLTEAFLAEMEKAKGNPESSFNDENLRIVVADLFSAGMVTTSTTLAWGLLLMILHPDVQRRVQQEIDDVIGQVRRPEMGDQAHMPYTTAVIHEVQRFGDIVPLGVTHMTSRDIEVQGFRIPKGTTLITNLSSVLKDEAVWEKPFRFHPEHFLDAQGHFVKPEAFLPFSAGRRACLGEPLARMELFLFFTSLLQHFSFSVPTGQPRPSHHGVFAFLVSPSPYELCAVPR

Q: Which results are given for `COc1ccc(-c2nc3cnc(N4CCN(C)CC4)nc3n(CCc3ccccc3)c2=O)cc1`?
A: AC50 (Cytochrome P450 2D6): 25.1 µM (inconclusive); AC50 (Cytochrome P450 3A4): inconclusive

Q: Which AC50 [1] does the source give for `CS(=O)(=O)N1[C@H](C(=O)NCc2ccncc2)[C@@H](CO)[C@@H]2Cn3c(ccc(C4=CCCCC4)c3=O)[C@@H]21` here?
A: 6.52 µM (active)

Q: With `O=C1NC(=S)NC1=Cc1ccco1` as the compound, how does the IC50 (Albumin) read?
A: > 94.1 µM (inactive)

Q: With `C[C@@H]1CN([C@H](C)CO)C(=O)Cc2cc(NC(=O)Cc3cn(C)c4ccccc34)ccc2O[C@H]1CN(C)Cc1ccc(C(F)(F)F)cc1` as the compound, how does the AC50 [2] read?
A: 3.42 µM (active)

Q: What does the source list for `Cc1cc(C)c(C)c(S(=O)(=O)N2CCC(C(=O)NNC(=O)c3ccccc3O)CC2)c1C`?
A: EC50 (Streptococcus): > 150 µM (not active); IC50 (Albumin): > 94.1 µM (inactive); EC50 (Streptokinase A): > 150 µM (not active); EC50 [3]: 17 µM (active); IC50 (H9c2): 31.7 µM (inactive)

Q: For `C/C(=N/OCO/N=C(\C)c1ccccc1)c1ccccc1`, which IC50 (Vero [4]) is on record?
A: > 25 µM (active)

Q: What does the source list for `O=C(COC(=O)CCCOc1ccc(Cl)cc1Cl)NCc1ccccc1`?
A: IC50 [5]: 16.4 µM (inactive); IC50 [6]: 83.3 µM (inactive); IC50 [7]: 11.3 µM (inactive)

Q: With `CCc1nc2ccc(Br)cc2c(=O)n1-c1ccccc1C(F)(F)F` as the compound, how does the AC50 [1] read?
A: 0.966 µM (active)

Q: With `C[C@H]1CN([C@@H](C)CO)C(=O)Cc2cc(NC(=O)Nc3ccc(C(F)(F)F)cc3)ccc2O[C@H]1CN(C)Cc1ccc2c(c1)OCO2` as the compound, how does the AC50 [2] read?
A: 4.99 µM (active)

Q: With `O=C(Nc1ncc2c(n1)CC(c1cccc(Cl)c1)CC2=O)c1ccco1` (configuration not stated) as the compound, how does the AC50 [1] read?
A: 1.95 µM (active)

Q: Which IC50 [8] does the source give for `N#Cc1c(N(CCO)CCO)nc(N)c2c(N)nc3c(c12)CC(=O)N3Cc1cccs1` here?
A: 20.7 µM (active)

Q: Which AC50 [2] does the source give for `C[C@H](CO)N1C[C@H](C)[C@H](CN(C)Cc2ccc(Oc3ccccc3)cc2)Oc2c(NC(=O)Nc3cccc4ccccc34)cccc2C1=O` here?
A: 3.24 µM (active)

Q: For `C[C@@H]1CN([C@H](C)CO)C(=O)Cc2cc(NS(=O)(=O)c3cccs3)ccc2O[C@@H]1CN(C)Cc1ccc(C(=O)Nc2ccccc2N)cc1`, which AC50 [2] is on record?
A: 4.03 µM (active)

Q: With `COc1ccccc1C(=O)Nc1cccc(NC(=O)c2ccccc2C(C)C)c1` as the compound, how does the IC50 [9] read?
A: 0.74 µM (active)

Q: What does the source list for `COc1cc(C(=O)N2CCN(C(=O)c3ccccc3)CC2)cc(OC)c1OC`?
A: AC50 (Cytochrome P450 1A2): 2.51 µM (inconclusive); AC50 (Cytochrome P450 3A4): inconclusive

Q: With `CC(C)Oc1ccccc1C(=O)Nc1cccc(NC(=O)c2ccccc2OC(F)(F)F)c1` as the compound, how does the IC50 [9] read?
A: 0.07 µM (active)

Q: For `Cc1ccc(S(=O)(=O)N2CCC(C(=O)NNC(=O)c3ccccc3O)CC2)cc1`, which IC50 (Albumin) is on record?
A: > 94.1 µM (inactive)

Q: Which CC50 (Vero [10]) does the source give for `O=C(c1cccc(S(=O)(=O)N2CCc3ccccc32)c1)N1CCN(c2ccccn2)CC1` here?
A: 18.9 µM (active)

Q: What about the IC50 (Vero [4]) of the same compound?
A: 6.82 µM (active)

Q: Which AC50 (Cytochrome P450 3A4) does the source give for `N#Cc1ccc(C(=O)Nc2ccc(N3CCN(C(=O)c4ccco4)CC3)cc2)c(F)c1` here?
A: inconclusive

Q: With `CCOc1ccc(CCNC(=O)c2cnc(C)cn2)cc1OCC` as the compound, how does the AC50 [1] read?
A: 2.54 µM (active)

Q: Which IC50 [5] does the source give for `COc1cccc(NC(=O)CN(C)CC(=O)Nc2ccc(Br)cc2)c1` here?
A: 13.2 µM (inactive)

Q: What about the IC50 [6] of the same compound?
A: 83.3 µM (inactive)

Q: What about the IC50 [7] of the same compound?
A: 51.2 µM (inactive)
